{"source": "patent US20260284157A1", "about": "“POWDER COMPOSITION COMPRISING A HAEMOSTATIC AGENT” (WOMED, priority 2023, published 2026)", "origin": "cited, not measured here", "conditions": "certificate of analysis of the product (Sigma Aldrich)"}
{"substance": "Thrombin", "values": [{"measurement": "activity of the protein", "value": "> 400", "unit": "NIH units/mg protein"}]}
